Laboratory results published in US20240299359A1, “PHARMACEUTICAL COMPOSITION FOR ANIMALS CONTAINING 5-HYDROXY-METHYLIMIDAZOLIDINE-2,4-DIONE COMPOUND AS ACTIVE INGREDIENT” (KYONGBO PHARM. CO., LTD., priority 2021, published 2024).
“And” between values parts separate entries of the source, which are not always exact repeats. Equal entries are not always repeated.

System: beagles
Test: 13-week repeated oral toxicity: hematological test
Type: in vivo, beagle
Experimental: Fasting was conducted the day before administration (blood test date, pre), the 4th week (day 29) after administration, the 8th week (day 57) after administration, and the 13th week (day 92) after administration, and when the remaining feed was present in the feed container 3 hours after feeding on the day of fasting, it was removed.
All subjects were fasted for 16 hours and measurements were then performed pre (before administration), 4 weeks (day 29) after administration, 8 weeks (day 57) after administration, and 13 weeks (day 92) after administration. Within 3 hours after 2 to 3 ml of blood collected from the jugular vein of each subject was injected into a CBC bottle containing EDTA, RBC, HGB, HCT, RBC indices (MCV, MCH, MCHC), and platelet count and WBC differential count were measured using an automatic hematometer.

[1] = G2 200 mg/kg group, female (F4-F6, Mean), before administration (day 0)
[2] = G2 200 mg/kg group, female (F4-F6, Mean), before administration (day 0), mean
[3] = G2 200 mg/kg group, male (M4-M6, Mean), before administration (day 0)
[4] = G2 200 mg/kg group, male (M4-M6, Mean), before administration (day 0), mean
[5] = G2 200 mg/kg, repeated administration for 13 weeks, female, group mean
[6] = G2 200 mg/kg, repeated administration for 13 weeks, female, individual animals
[7] = G2 200 mg/kg, repeated administration for 13 weeks, male, group mean
[8] = G2 200 mg/kg, repeated administration for 13 weeks, male, individual animals
[9] = G3 500 mg/kg group, female (F7-F9, Mean), before administration (day 0)
[10] = G3 500 mg/kg group, female (F7-F9, Mean), before administration (day 0), mean
[11] = G3 500 mg/kg group, male (M7-M9, Mean), before administration (day 0)
[12] = G3 500 mg/kg group, male (M7-M9, Mean), before administration (day 0), mean
[13] = G3 500 mg/kg, repeated administration for 13 weeks, female, group mean

CN1C(=O)NC(=O)C1O (stereo not drawn) [KBP-001, 5-hydroxy-1-methylimidazolidine-2,4-dione]
HCT [1]: 47.0% and 49.6% and 51.3% | HGB [1]: 15. g/dl and 16.7 g/dl and 17.5 g/dl | MCH [1]: 22.5 pg and 22.6 pg and 22.7 pg | MCHC [1]: 33.8 g/dL and 33.6 g/dL and 34.1 g/dL | MCV [1]: 66.6 fL and 67.3 fL and 66.7 fL | Retic [1]: 0.77% and 1.34% and 1.01% | WBC Differential Counting Baso [1]: 1.0% (2×) and 0.8% | WBC Differential Counting Eos [1]: 7.3% and 5.5% and 4.5% | WBC Differential Counting Lymph [1]: 30.0% and 20.55% and 30.2% | WBC Differential Counting Mono [1]: 5.7% and 6.2% and 6.1% | WBC Differential Counting Neut [1]: 55.5% and 66.3% and 57.6% | HCT [2]: 49.30% | HGB [2]: 16.70 g/dL | MCH [2]: 22.6 pg | MCHC [2]: 33.83 g/dL | MCV [2]: 66.9 fL | Retic [2]: 1.04% | WBC Differential Counting Baso [2]: 0.93% | WBC Differential Counting Eos [2]: 5.77% | WBC Differential Counting Lymph [2]: 27.00% | WBC Differential Counting Mono [2]: 6.00% | WBC Differential Counting Neut [2]: 59.80% | HCT [3]: 48.1% and 48.8% and 45.2% | HGB [3]: 16.0 g/dL and 15.2 g/dL | MCH [3]: 22.2 pg and 21.7 pg and 21 pg | MCHC [3]: 33.3 g/dL and 32.9 g/dL and 33.7 g/dL | MCV [3]: 66.8 fL and 66.1 fL and 62.3 fL | Retic [3]: 1.21% and 1.16% and 1.11% | WBC Differential Counting Baso [3]: 1.0% and 0.9% and 0.8% | WBC Differential Counting Eos [3]: 3.5% and 4.7% and 6.4% | WBC Differential Counting Lymph [3]: 40.5% and 29.4% and 23.2% | WBC Differential Counting Mono [3]: 4.7% and 8.3% and 6.0% | WBC Differential Counting Neut [3]: 49.6% and 56.2% and 63.3% | HCT [4]: 47.37% | HGB [4]: 15.73 g/dL | MCH [4]: 21.6 pg | MCHC [4]: 33.30 g/dL | MCV [4]: 65.1 fL | WBC Differential Counting Baso [4]: 0.90% | WBC Differential Counting Eos [4]: 4.87% | WBC Differential Counting Lymph [4]: 31.03% | WBC Differential Counting Mono [4]: 6.33% | WBC Differential Counting Neut [4]: 56.37% | HGB [5]: 15.77 g/dL | MCH [5]: 22.9 pg | MCHC [5]: 33.80 g/dL | MCV [5]: 67.9 fL | Retic [5]: 0.41% | WBC Differential Counting(%) Baso [5]: 0.77% | WBC Differential Counting(%) Eos [5]: 8.10% | WBC Differential Counting(%) Lymph [5]: 28.50% | WBC Differential Counting(%) Mono [5]: 5.30% | WBC Differential Counting(%) Neut [5]: 56.90% | HCT [6]: 45.3% and 47.7% and 46.9% | HGB [6]: 15.3 g/dl and 16.0 g/dl (2×) | MCHC [6]: 33.7 g/dL and 33.6 g/dL and 34.1 g/dL | MCV [6]: 67.2 fL and 68.8 fL and 67.5 fL | Retic [6]: 0.25% and 0.42% and 0.55% | WBC Differential Counting(%) Baso [6]: 0.8% (2×) and 0.7% | WBC Differential Counting(%) Eos [6]: 8.1% and 7.4% and 8.8% | WBC Differential Counting(%) Lymph [6]: 25.1% and 33.4% and 27.0% | WBC Differential Counting(%) Mono [6]: 5.3% and 5.0% and 5.6% | WBC Differential Counting(%) Neut [6]: 60.2% and 53.1% and 57.4% | HCT [7]: 46.43% | HGB [7]: 15.53 g/dL | MCH [7]: 22.2 pg | MCHC [7]: 33.40 g/dL | MCV [7]: 66.4 fL | Retic [7]: 0.50% | WBC Differential Counting(%) Baso [7]: 0.67% | WBC Differential Counting(%) Eos [7]: 6.23% | WBC Differential Counting(%) Lymph [7]: 31.10% | WBC Differential Counting(%) Mono [7]: 6.47% | WBC Differential Counting(%) Neut [7]: 55.10% | HCT [8]: 43.8% and 47.0% and 48.5% | HGB [8]: 14.4 g/dL and 15.8 g/dL and 16.4 g/dL | MCH [8]: 22 pg and 22.8 pg and 21.8 pg | MCHC [8]: 32.9 g/dL and 33.5 g/dL and 33.8 g/dL | MCV [8]: 66.8 fL and 67.9 fL and 64.5 fL | Retic [8]: 0.45% and 0.59% and 0.46% | WBC Differential Counting(%) Baso [8]: 0.8% and 0.7% and 0.5% | WBC Differential Counting(%) Eos [8]: 6.8% and 5.3% and 6.6% | WBC Differential Counting(%) Lymph [8]: 35.9% and 32.7% and 24.7% | WBC Differential Counting(%) Mono [8]: 6.1% and 7.5% and 5.8% | WBC Differential Counting(%) Neut [8]: 50.0% and 53.4% and 61.9% | HCT [9]: 44.4% and 50.3% and 47.5% | HGB [9]: 14.6 g/dL and 16.9 g/dL and 15.9 g/dL | MCH [9]: 22.5 pg and 22.2 pg and 22.1 pg | MCHC [9]: 33.0 g/dL and 33.5 g/dL | MCV [9]: 68.3 fL and 66.4 fL and 66.2 fL | Retic [9]: 0.61% and 0.91% and 1.01% | WBC Differential Counting Baso [9]: 0.6% and 1.5% and 0.4% | WBC Differential Counting Eos [9]: 3.4% and 1.1% and 3.7% | WBC Differential Counting Lymph [9]: 42.0% and 44.2% and 28.3% | WBC Differential Counting Mono [9]: 4.9% and 3.7% and 5.9% | HCT [10]: 47.40% | HGB [10]: 15.80 g/dL | MCH [10]: 22.3 pg | MCHC [10]: 33.33 g/dL | MCV [10]: 67 fL | Retic [10]: 0.84% | WBC Differential Counting Baso [10]: 0.83% | WBC Differential Counting Eos [10]: 2.73% | WBC Differential Counting Lymph [10]: 38.17% | WBC Differential Counting Mono [10]: 4.83% | HCT [11]: 44.8% and 43.0% and 52.1% | HGB [11]: 15.0 g/dL and 13.8 g/dL and 17.4 g/dL | MCH [11]: 23 pg and 22.3 pg and 22.9 pg | MCHC [11]: 33.4 g/dL and 32.1 g/dL | MCV [11]: 68 fL and 69.4 fL and 68.7 fL | Retic [11]: 0.60% and 0.46% and 0.84% | WBC Differential Counting Baso [11]: 0.4% and 0.8% and 1.1% | WBC Differential Counting Eos [11]: 2.6% and 8.5% and 2.9% | WBC Differential Counting Lymph [11]: 36.0% and 33.1% and 36.7% | WBC Differential Counting Mono [11]: 5.9% and 7.8% and 5.8% | WBC Differential Counting Neut [11]: 54.8% and 49.4% and 53.0% | HCT [12]: 46.63% | HGB [12]: 15.40 g/dL | MCH [12]: 22.7 pg | MCHC [12]: 32.97 g/dL | MCV [12]: 69 fL | Retic [12]: 0.63% | WBC Differential Counting Baso [12]: 0.77% | WBC Differential Counting Eos [12]: 4.67% | WBC Differential Counting Lymph [12]: 35.27% | WBC Differential Counting Mono [12]: 6.50% | WBC Differential Counting Neut [12]: 52.40% | HCT [13]: 48.00% | HGB [13]: 16.00 g/dL
